From patent publication US10208043B2, “Methods for inhibiting fascin” (Novita Pharmaceuticals, Inc., priority 2012, dated 2019) come the findings set out here.

One may read the IC50 as the midpoint of a concentration-inhibition curve.

In assay [1] the target is fascin (Homo sapiens (Human), UniProt Q16658). Put plainly: High throughput fascin inhibition assay (actin bundling, F-actin imaging). It counts as biochemical. As for the experimental part:
A high throughput assay was developed to screen for fascin specific inhibitors. Purified polymerized F-actin with or without fascin were mixed and incubated to allow actin bundle formation. F-actin polymers were then bound to the poly-D-lysine coated plates. […] Four images were taken from each well and the average fiber length was analyzed for each tested compound.
Recombinant human fascin 1 was expressed as a GST fusion protein in BL21 Escherichia coli. One liter of 2YT medium with ampicillin was inoculated overnight with 3 mL of BL21/DE3 culture transformed with pGEX4T-fascin 1 plasmid and grown at 37° C. until attenuance at 600 nm (D600) reached about 0.8. The culture was then transferred to 18° C. and induced by the addition of 0.1 mM isopropyl β-d-thiogalactoside (IPTG) for 12 h. Bacteria were harvested by centrifugation at 5,000 r.p.m. for 10 min. The pellets were suspended in 30 mL of PBS supplemented with 0.2 mM PMSF, 1 mM DTT, 1% (v/v) Triton X-100 and 1 mM EDTA. After sonication, the suspension was centrifuged at 15,000 r.p.m. for 30 min to remove the cell debris. The supernatant was then incubated for 2 h with 4 mL of glutathione beads (Sigma) at 4° C. After extensive washing with PBS, the beads were resuspended in 10 mL of thrombin cleavage buffer (20 mM Tris-HCl pH 8.0, 150 mM NaCl, 2 mM CaCl2, 1 mM DTT). Fascin was released from the beads by incubation overnight with 40-100 U of thrombin at 4° C. After centrifugation, 0.2 mM PMSF was added to the supernatant to inactivate the remnant thrombin activity. The fascin protein was further concentrated with a Centricon® (Boca Raton, Fla.) filter to about 50 mg/mL.
About 150,000 compounds were screened. […] Purified fascin protein (15 μL of 0.5 μM) in buffer (100 mM KCl, 20 mM Tris/HCl, pH 7.5, 2 mM MgCl2) was added into each well of a clear 384-well flat-bottom plate (Corning) using Thermo Multidrop Combi (Fisher). Compound ([…]) solutions (5 mM stock) from various chemical libraries were pin transferred from stock 384-well plates into the 384-well assay plates and incubated for 30 min. Then 15 μL of 0.5 μM polymerized actin (in 100 mM KCl, 20 mM Tris/HCl, pH 7.5, 2 mM MgCl2, 1 mM DTT, 1 mM ATP) (Cytoskeleton Inc.) was added, resulting in 30 μM final concentration for chemical compounds. […] Mixed solution (25 μL) was then transferred to one well in a black 384-well plate coated with poly-D-lysine, and stained actin bundles or F-actin would stick onto the poly-D-lysine plates. After the plates were thoroughly washed with 1×PBS for 3 times, the plate was imaged using an ImageXpress Micro High Content Screening System (Molecular devices). The images were processed and analyzed using MetaMorph software. The raw image data for each well was background-corrected by subtraction of the median intensities across all wells on the plate. The background-corrected data was used to compute the bundle length for each well. The negative control wells were employed for quality control: multiple DMSO-only control wells (16 wells/plate) were present on each assay plate.

Assay [2] deals with 4T1 breast tumor cells. Put plainly: Tumor metastasis in mouse models (lung metastasis, 6-thioguanine clonogenic assay). It counts as in vivo, Balb/c mice. To be noted: 4T1 cells in mammary fat-pad, n=5, P<0.01. As to the method: Lung metastasis was measured by the 6-thioguanine clonogenic assay. […] Results are mean±SD (n=5). *, P<0.01.
Tumor cell migration is essential for tumor metastasis. […] Tumor cells (4T1 breast tumor cells) were injected into the mammary fat-pad of mice. The metastasis of these breast tumor cells from the mammary gland to the lung was monitored by the clonogenic assay.
Balb/c mice were purchased from Charles River. All animal procedures were approved by the Animal Care and Use Committees of the Weill Cornell Medical College and performed in accordance with institutional polices. For xenograft tumor metastasis studies, 5×10^5 4T1 cells were suspended in 100 μL PBS and injected subcutaneously into the mammary glands of 6-8 week old female Balb/c mice. Tumor incidence was monitored for 21 days after injection. Tumor size was measured three times a week, and the volume was calculated using the formula length×width^2×0.5. Compound treatment was initiated 7 days after tumor implantation; animals were administered daily with indicated dose for 2 weeks. On day 28, the mice were sacrificed. Numbers of metastatic 4T1 cells in lungs were determined by the clonogenic assay. […] Data are expressed as mean±S.D. and analyzed by Student's t test with significance defined as p<0.05.

The subject of assay [3] is PC-3 prostate tumor cells. Put plainly: Boyden-chamber cell migration assay, PC-3. It is filed as cell-based. As for the experimental part:
(§1) Since fascin is critical for tumor cell migration, inhibitors of fascin should block tumor cell migration. Representative compounds were selected from the above-identified fascin inhibitors to test their abilities on inhibition of tumor cell migration (See Table 2). […] Therefore, tumor cells with fascin expression are likely sensitive to these fascin inhibitors. The cell lines used are listed below.
(§2) Exemplifying procedure: MDA-MB-231 cells (5×10^4) or 4T1 Cells (1×10^5) suspended in 100 μL starvation medium were added to the upper chamber of an insert (6.5 mm diameter, 8 μm pore size; Becton Dickson), and the insert was placed in a 24-well plate containing 700 μL starvation medium with or without 10% FBS. When used, inhibitors were added to the lower chamber. Migration assays were performed for 6 h and cells were fixed with 3.7% formaldehyde. Cells were stained with crystal violet staining solution, and cells on the upper side of the insert were removed with a cotton swab. Three randomly selected fields (×10 objectives) on the lower side of the insert were photographed, and the migrated cells were counted. Migration was expressed as average number of migrated cells in a field.

Assay [4] has as its system 4T1 breast tumor cells. Put plainly: Boyden-chamber cell migration assay, 4T1. It counts as cell-based. As to the method:
(§3) Since fascin is critical for tumor cell migration, inhibitors of fascin should block tumor cell migration. Representative compounds were selected from the above-identified fascin inhibitors to test their abilities on inhibition of tumor cell migration (See Table 2). […] The cell lines used are listed below.
as §2, with “When used, inhibitors were added to the lower chamber.” left out

For assay [5], the system named is LLC lung tumor cells. Put plainly: Boyden-chamber cell migration assay, LLC. It is filed as cell-based. As for the experimental part:
as §1, §2

Assay [6] relates to DU145 prostate tumor cells. Put plainly: Boyden-chamber cell migration assay, DU145. It counts as cell-based. To be noted: Homo sapiens, DU-145. As to the method: as §1, §2
Assay [7] relates to MDA-MB-231 breast tumor cells. Put plainly: Boyden-chamber cell migration assay, MDA-MB-231. It counts as cell-based. To be noted: Homo sapiens. As for the experimental part: as §3
as §2, with “When used, inhibitors were added to the lower chamber.” left out

Setting [8] is: Actin + Fascin + compound at 30 μM.

In turn, `COc1ccc(S(=O)(=O)Nc2cc(Sc3nc[nH]n3)c(O)c3ccccc23)cc1` [Compound 10, N-(3-(1H-1,2,4-triazol-3-ylthio)-4-hydroxynaphthalen-1-yl)-4-methoxybenzenesulfonamide] displayed a half-maximal inhibitory concentration (IC50) in assay [1] of 0.807 µM. The “tumor metastasis from mammary gland to lung” value in assay [2] (30 mg/kg daily for 2 weeks) was “decreased the tumor metastasis”.

Consider `O=[N+]([O-])c1ccc(Cl)c(S(=O)(=O)Nc2nc3ccc(Cl)cc3s2)c1` [Compound 3, 2-chloro-N-(6-chlorobenzo[d]thiazol-2-yl)-5-nitrobenzenesulfonamide], for which the IC50 stood at 25 µM in assay [3]; 0.652 µM in assay [1]; 20 µM in assay [4]; 25 µM in assay [5]; 25 µM in assay [6]; 25 µM in assay [7]. Besides, the fiber growth entry in assay [1] (30 μM) was “inhibited fiber growth”. Further, the Average fiber length in assay [1] (setting [8]) is on record as 0.39 arbitrary unit. The Average fiber thickness in assay [1] (setting [8]) was 0.35 arbitrary unit. In addition, the “tumor metastasis from mammary gland to lung” value in assay [2] (8 mg/kg daily for 2 weeks) was “decreased the tumor metastasis”.

`C/N=c1/nc(-c2ccccc2)n(-c2ccccc2)s1` [Compound 4, (Z)-N-(2,3-diphenyl-1,2,4-thiadiazol-5(2H)-ylidene)methanamine]: the figures for the IC50 in assay [1], in assay [4] and in assay [7] were 0.5 µM, 50 µM and 30 µM, respectively.

As to `O=C(/C=C/c1ccccc1)Nc1nc2ccccc2s1` [Compound 20, N-(benzo[d]thiazol-2-yl)cinnamamide], the IC50 in assay [1] was about 4 µM; in assay [4] it was about 60 µM.
